*1 amine or outer side, *2 acyl side, *3 side chain or, on linkers, in order; H or OH if unused. Where a SMILES comes first, the peptide text is derived from it. Bridges are numbered along the chain shown (N, C = ends). [ ]: non-standard residue; d: D form. hTyr(3S-OH,4S-OH,3'-OSO3H) = N[C@H](C(=O)O)[C@H](O)[C@@H](O)c1ccc(O)c(OS(=O)(=O)O)c1; Orn(4R-OH,5R-OH) = O=C([C@H](C[C@@H](O)[C@@H](O)N[*:3])N[*:1])[*:2]; Pro(3S-OH,4S-Me) = C[C@H]1CN[C@H](C(=O)O)[C@H]1O; Gln(3R-OH) = NC(=O)C[C@@H](O)[C@H](N)C(=O)O; Hyp = O=C(O)[C@@H]1C[C@@H](O)CN1
Molecular target: tau (Homo sapiens, UniProt P10636)
Assay: MCE Phenols Library screening, tau biosensor cell seeding assay (AvZ)
Type: cell-based
Settings: for Z repl 1 / Z Repl 2: Z score; for Z repl 1 / raw data 1: replicate 1; for Z Repl 2 / raw data 2: replicate 2; for AvZ (average z score of seeding, SDs from the mean level of seeding): 10 μM phenol in cell cultures, AD brain homogenate preincubated 16 hours, two biological replicates, positive = catalyzes seeding, negative = inhibits
[1] = average Z score of the two replicates, tau biosensor seeding, MCE Phenols Library screen
[2] = average Z score of two replicates, Phenols Library screen
[3] = average Z score of the two replicates, tau seeding
[4] = average Z score of the two replicates, MCE Phenols Library screen
[5] = average puncta of the two replicates

tau, sequence (P10636 623-695 limits assumed): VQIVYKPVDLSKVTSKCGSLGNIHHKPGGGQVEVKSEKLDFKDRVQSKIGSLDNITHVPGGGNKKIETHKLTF

| Compound | Z repl 1 | Z Repl 2 | av Z [1] | av puncta (average of raw data 1 and 2) | raw data 1 (puncta) | raw data 2 (puncta) | av Z [2] | av Z [3] | av Z [4] | av puncta [5] | AvZ (average z score of seeding, SDs from the mean level of seeding) | raw data 1 (raw puncta) | raw data 2 (raw puncta) |
| --- | --- | --- | --- | --- | --- | --- | --- | --- | --- | --- | --- | --- | --- |
| C[C@@H](O)[C@@H]1NC(=O)[C@@H](N)C[C@@H](O)[C@@H](O)NC(=O)[C@@H]2[C@@H](O)[C@@H](C)CN2C(=O)[C@H]([C@H](O)CC(N)=O)NC(=O)[C@H]([C@H](O)[C@@H](O)c2ccc(O)c(OS(=O)(=O)O)c2)NC(=O)[C@@H]2C[C@@H](O)CN2C1=O [FR179642] (H-[Orn(4R-OH,5R-OH)]T[Hyp][hTyr(3S-OH,4S-OH,3'-OSO3H)][Gln(3R-OH)][Pro(3S-OH,4S-Me)]; lactam 1-C) | 1.095 | 0.887 | 0.991 | 30866.7 | 39497.8 | 22235.7 | – | – | – | – | – | – | – |
| COc1cc(O)cc(O)c1C(=O)/C=C/c1ccccc1 [Cardamonin] | -0.394 | 0.139 | – | 17936.7 | 21621.9 | 14251.5 | -0.127 | – | – | – | – | – | – |
| O=c1cc(O)cc(/C=C/c2ccc(O)c(O)c2)o1 [Hispidin] | 0.687 | -0.112 | – | 23081.7 | 34594.7 | 11568.8 | – | 0.287 | – | – | – | – | – |
| COc1cc2ccc(=O)oc2c(O)c1O [Fraxetin] | -0.275 | -0.769 | – | – | 23050.6 | 4555.69 | – | – | -0.522 | 13803.1 | – | – | – |
| Oc1cc(O)c2c(c1)O[C@H](c1ccc(O)c(O)c1)[C@H](O)[C@H]2c1c(O)cc(O)c2c1O[C@H](c1ccc(O)c(O)c1)[C@H](O)C2 [Procyanidin B2] | -0.678 | -0.711 | – | – | 18204.5 | 5175.99 | – | – | -0.695 | 11690.3 | – | – | – |
| Oc1cc(O)c2c(c1)O[C@@]1(c3ccc(O)c(O)c3)Oc3cc(O)c4c(c3[C@@H]2[C@H]1O)O[C@H](c1ccc(O)c(O)c1)[C@@H](O)C4 [Procyanidin A1] | 0.114 | 0.572 | – | 23298.5 | 27718.4 | 18878.6 | – | 0.343 | – | – | – | – | – |
| O=C(/C=C/c1ccc(O)cc1)c1ccc(O)cc1O [Isoliquiritigenin] | 0.483 | 0.177 | – | 23402.5 | 32143.5 | 14661.5 | – | 0.33 | – | – | – | – | – |
| CC(=O)OCCc1ccc(O)c(O)c1 [4-Hydroxytyrosol acetate] | – | – | – | – | – | – | – | – | – | – | -0.526 | – | – |
| CC(C)=CCc1c2ccoc2c(O)c2oc(=O)ccc12 [Alloimperatorin] | 0.545 | -0.475 | – | 20292.7 | 32890.3 | 7695.05 | 0.035 | – | – | – | – | – | – |
| O=c1cc(-c2ccccc2)oc2c(O)c(O)cc(O)c12 [Norwogonin] | -0.966 | -0.652 | – | 10276.7 | 14754.3 | 5799.06 | – | – | -0.809 | – | – | – | – |
| COc1cc(-c2cc(=O)c3c(O)c(OC)c(O)cc3o2)ccc1O [Jaceosidin] | 1.473 | 0.443 | 0.958 | 30766.9 | 44034.1 | 17499.7 | – | – | – | – | – | – | – |
| Neosmitilbin | 0.198 | -0.157 | – | 19907.5 | 28721.6 | 11093.4 | 0.021 | – | – | – | – | – | – |
| COc1cc(/C=C/C(=O)O)ccc1O [Ferulic acid] | -0.555 | -0.346 | – | – | – | – | – | – | – | 14374.8 | -0.451 | 19680.6 | 9068.99 |

From article PMC11784839, “Monoaminergic neurotransmitters are bimodal effectors of tau aggregation” (Science Advances, 2025)
